Laboratory results published in patent US8802597B2, “Herbicidal pyrimidines” (E I du Pont de Nemours and Company, priority 2003, dated 2014).
Where two headings read alike, the source gives them in different places.

Columns and labels:
Assay in all cases: Test C pre/postemergence
Type in all cases: in vivo
[1] = test system: Surinam grass (Brachiaria decumbens); details: Urochloa decumbens; for pest or weed control at 125 g/ha: 125 g ai/ha; for pest or weed control at 31 g/ha: 31 g ai/ha; for pest or weed control at 62 g/ha: 62 g ai/ha; for pest or weed control at 250 g/ha: 250 g ai/ha
Method in brief: (§1)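 Injury scored visually 12–14 days after application on 0–100 scale (100 = complete control), relative to controls. Compounds, formulated with surfactant in non-phytotoxic solvent, applied to soil at planting (pre) or to 1- to 4-leaf plants 2–18 cm tall (post) in greenhouse.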

[2] = test system: common (oilseed) sunflower (Helianthus annuus); details: Helianthus annuus, pre-emergence, Preemergence, read-out: Plant response rating, Sunflower
Method in brief: as §1

[3] = test system: common ragweed (Ambrosia elatior); details: Ambrosia artemisiifolia; for pest or weed control at 31 g/ha: 31 g ai/ha; for pest or weed control at 62 g/ha: 62 g ai/ha; for pest or weed control at 125 g/ha: 125 g ai/ha; for pest or weed control at 250 g/ha: 250 g ai/ha
Method in brief: as §1

[4] = test system: giant foxtail (Setaria faberii); details: Setaria faberi; for pest or weed control at 125 g/ha: 125 g ai/ha; for pest or weed control at 31 g/ha: 31 g ai/ha; for pest or weed control at 62 g/ha: 62 g ai/ha; for pest or weed control at 250 g/ha: 250 g ai/ha
Method in brief: as §1

[5] = test system: johnsongrass (Sorghum halepense); details: Sorghum halepense; for pest or weed control at 31 g/ha: 31 g ai/ha; for pest or weed control at 62 g/ha: 62 g ai/ha; for pest or weed control at 125 g/ha: 125 g ai/ha; for pest or weed control at 250 g/ha: 250 g ai/ha
Method in brief: as §1

kochia (Kochia scoparia) = details: Bassia scoparia; for pest or weed control at 31 g/ha: 31 g ai/ha; for pest or weed control at 62 g/ha: 62 g ai/ha; for pest or weed control at 125 g/ha: 125 g ai/ha; for pest or weed control at 250 g/ha: 250 g ai/ha
Method in brief: as §1

[6] = post-emergence, Postemergence, scale 0 to 100 (0 no effect, 100 complete control), read-out: Surinam Grass plant response rating
[7] = pre-emergence, Preemergence, scale 0 to 100, 0 no effect, 100 complete control, read-out: Plant response rating, Surinam Grass
[8] = pre-emergence, Preemergence, scale 0 to 100, read-out: Plant response rating, Surinam Grass
[9] = post-emergence, Postemergence, scale 0 to 100 (0 no effect, 100 complete control), read-out: Ragweed plant response rating
[10] = pre-emergence, Preemergence, scale 0 to 100, 0 no effect, 100 complete control, read-out: Plant response rating, Ragweed
[11] = pre-emergence, Preemergence, scale 0 to 100, read-out: Plant response rating, Ragweed
[12] = post-emergence, Postemergence, scale 0 to 100 (0 no effect, 100 complete control), read-out: Foxtail, Giant plant response rating
[13] = pre-emergence, Preemergence, scale 0 to 100, 0 no effect, 100 complete control, read-out: Plant response rating, Foxtail, Giant
[14] = pre-emergence, Preemergence, scale 0 to 100, read-out: Plant response rating, Foxtail, Giant
[15] = post-emergence, Postemergence, scale 0 to 100 (0 no effect, 100 complete control), read-out: Johnsongrass plant response rating
[16] = pre-emergence, Preemergence, scale 0 to 100, 0 no effect, 100 complete control, read-out: Plant response rating, Johnsongrass
[17] = pre-emergence, Preemergence, scale 0 to 100, read-out: Plant response rating, Johnsongrass
[18] = post-emergence, Postemergence, scale 0 to 100 (0 no effect, 100 complete control), read-out: Kochia plant response rating
[19] = pre-emergence, Preemergence, scale 0 to 100, 0 no effect, 100 complete control, read-out: Plant response rating, Kochia
[20] = pre-emergence, Preemergence, scale 0 to 100, read-out: Plant response rating, Kochia

In the case of `CCOC(=O)c1nc(C2CC2)nc(N)c1F` [Compound 30], the pest or weed control at 125 g/ha [1, 6] is reported as 0%, the pest or weed control at 31 g/ha ([1]; post-emergence, Postemergence, read-out: Plant response rating (scale of 0 to 100), Surinam Grass) is reported as 0% and the pest or weed control at 62 g/ha [1, 6] is reported as 0%. It also gave a pest or weed control at 250 g/ha ([1]; post-emergence, Postemergence, scale 0 to 100, read-out: Plant response rating, Surinam Grass) of 35%, a pest or weed control at 31 g/ha [1, 7] of 0% and a pest or weed control at 62 g/ha [1, 7] of 0%. For the same compound, the pest or weed control at 125 g/ha [1, 8] was 0%, the pest or weed control at 250 g/ha [1, 8] was 20% and the pest or weed control at 31 g/ha ([2]; 31 g ai/ha, scale 0 to 100, 0 no effect, 100 complete control) was 20%. The pest or weed control at 62 g/ha ([2]; 62 g ai/ha, scale 0 to 100, 0 no effect, 100 complete control) was 80%, the pest or weed control at 125 g/ha ([2]; 125 g ai/ha, scale 0 to 100) was 90% and the pest or weed control at 250 g/ha ([2]; 250 g ai/ha, scale 0 to 100) was 90%. For the same compound, the pest or weed control at 31 g/ha ([3]; post-emergence, Postemergence, read-out: Plant response rating (scale of 0 to 100), Ragweed) was 60%, the pest or weed control at 62 g/ha [3, 9] was 80% and the pest or weed control at 125 g/ha [3, 9] was 85%. The pest or weed control at 250 g/ha ([3]; post-emergence, Postemergence, scale 0 to 100, read-out: Plant response rating, Ragweed) was 90%, the pest or weed control at 31 g/ha [3, 10] was 30% and the pest or weed control at 62 g/ha [3, 10] was 85%. The pest or weed control at 125 g/ha [3, 11] was 90%, the pest or weed control at 250 g/ha [3, 11] was 100% and the pest or weed control at 125 g/ha [4, 12] was 0%. It also gave a pest or weed control at 31 g/ha ([4]; post-emergence, Postemergence, read-out: Plant response rating (scale of 0 to 100), Foxtail, Giant) of 0%, a pest or weed control at 62 g/ha [4, 12] of 0% and a pest or weed control at 250 g/ha ([4]; post-emergence, Postemergence, scale 0 to 100, read-out: Plant response rating, Foxtail, Giant) of 40%. It also gave a pest or weed control at 31 g/ha [4, 13] of 0%, a pest or weed control at 62 g/ha [4, 13] of 0% and a pest or weed control at 125 g/ha [4, 14] of 20%. For the same compound, the pest or weed control at 250 g/ha [4, 14] was 60%, the pest or weed control at 31 g/ha ([5]; post-emergence, Postemergence, read-out: Plant response rating (scale of 0 to 100), Johnsongrass) was 0% and the pest or weed control at 62 g/ha [5, 15] was 5%. For the same compound, the pest or weed control at 125 g/ha [5, 15] was 10%, the pest or weed control at 250 g/ha ([5]; post-emergence, Postemergence, scale 0 to 100, read-out: Plant response rating, Johnsongrass) was 40% and the pest or weed control at 31 g/ha [5, 16] was 0%. The pest or weed control at 62 g/ha [5, 16] was 0%, the pest or weed control at 125 g/ha [5, 17] was 5% and the pest or weed control at 250 g/ha [5, 17] was 5%. It also gave a pest or weed control at 31 g/ha (kochia (Kochia scoparia); post-emergence, Postemergence, read-out: Plant response rating (scale of 0 to 100), Kochia) of 55%, a pest or weed control at 62 g/ha (kochia (Kochia scoparia); [18]) of 90% and a pest or weed control at 125 g/ha (kochia (Kochia scoparia); [18]) of 100%. For the same compound, the pest or weed control at 250 g/ha (kochia (Kochia scoparia); post-emergence, Postemergence, scale 0 to 100, read-out: Plant response rating, Kochia) was 100%, the pest or weed control at 31 g/ha (kochia (Kochia scoparia); [19]) was 50% and the pest or weed control at 62 g/ha (kochia (Kochia scoparia); [19]) was 70%. It also gave a pest or weed control at 125 g/ha (kochia (Kochia scoparia); [20]) of 70% and a pest or weed control at 250 g/ha (kochia (Kochia scoparia); [20]) of 90%.
